Measurements published in PMC10149208, “A validated HPLC-MS/MS method for simultaneously analyzing curcumin, demethoxycurcumin, bisdemethoxycurcumin, tetra-hydrocurcumin and piperine in human plasma, urine or feces” (Heliyon, 2023).

Legend:
[1] = design: method as in PMID 9619120; conditions: rats; addition of 20 mg/kg piperine; cited from earlier work
[2] = Freeze-thaw stability of QC stock solution in DMSO; assay type: physicochemical; conditions: stock 10 μM in DMSO at −20 °C
Procedure: Freeze-thaw stability of QC stock solution 10 μM at −20 °C was performed with stock solution that had underwent 0, 1 and 10 freeze-thaw cycles. Three samples per freeze-thaw cycle in MeOH:H2O 60%:40% were prepared at 100 nM and measured in duplicate. Four QC samples per concentration were prepared in plasma. Four replicates per sample were frozen for 60 min at −20 °C. All samples were thawed at room temperature and frozen ones (cycle 1). Per four replicates and concentrations the samples were thawed and frozen further a second, third or fourth time. All samples were thawed at the same time for simultaneous assessment with a calibration curve.

[3] = Stability of QC samples in plasma during storage in different conditions; assay type: in vitro ADME, human
[4] = 24-h urine concentration after single oral intake of curcuminoid capsules; assay type: in vivo, human; conditions: three participants, 4 capsules containing 600 mg curcuminoids, versus untreated sample
Procedure: (§1) One mL TBME was added to the mixture. Feces samples were first diluted 10.000x (four steps of 1:10 dilution) with Bovine Serum Albumin (BSA) 2% in Milli-Q water to reduce matrix effects before 50 μL IS-mix 100uM was added to 100 μL feces dilution. A second 100 μL sample with IS solution was hydrolyzed with 50 μL 20 U/μl β-glucuronidase, vortexed and after this addition incubated for 1 h at 37 °C. Following 1 mL TBME was added. After shaking for 15 min at 480 rpm/min all samples were centrifuged at 18213×g during 1 min. The lower aqueous layer was frozen on dry-iced ethanol and the upper organic layer of approximately 1 mL was decanted into a fresh tube and dried under vacuum using a Speedvac at room temperature. Next, samples were reconstituted with 100 μL MeOH:H2O 60%:40%, vortexed and sonicated for 5 min. After centrifuge at 18213×g during 3 min the supernatant was ready for injection into the HPLC-MS/MS.
(§2) Data from three healthy male participants included from a study researching the bioavailability of curcumin formulations is presented to show the applicability of the method in real-life settings. The participants signed informed consent and followed diet restrictions to avoid any curcumin or piperine intake five days before the visit day to ensure that only curcumin and/or piperine from the curcumin capsules were observed. On the visit day a plasma concentration curve at t = 0, 0.25, 0.50, 0.75, 1, 1.5, 2, 4, 8 and 24 h, collection of 24-h urine and 48-h feces were taken after single oral intake of 4 commercially available soft capsules containing 600 mg curcuminoids (curcumin, demethoxycurcumin and bisdemethoxycurcumin with 95% purity). The trial has been approved by the local institutional ethics committee and has been registered in the Dutch Clinical Trial Register under registration number NL6552. Each individual sample was analyzed according to the method described above.

[5] = 48-h feces concentration after single oral intake of curcuminoid capsules; assay type: in vivo, human; conditions: 4 capsules containing 600 mg curcuminoids
Procedure: as §1, §2

[6] = Plasma concentration curve after single oral intake of curcuminoid capsules; assay type: in vivo, human; conditions: three participants, 4 capsules containing 600 mg curcuminoids, versus untreated sample
Procedure: as §1, §2

[7] = system: retinal pigmented epithelial cells and retinal endothelial cells; design: method as in PMID 30013474; conditions: 10 μM; cited from earlier work
pancreatic cancer = system: pancreatic cancer; design: method as in PMID 18628464; conditions: Phase II; cited from earlier work
SW620 cells = system: SW620 cells; design: method as in PMID 33812170; conditions: 10 μM, incubated for 2 days; cited from earlier work
[8] = QC 10, Room temperature - light
[9] = QC 50, Room temperature - light
[10] = QC 100, Room temperature - dark
[11] = QC 100, Room temperature - light

| Molecule | Freeze-thaw stability, concentration relative to nominal ([2]; QC 100 nM 0x thawed) | Freeze-thaw stability, concentration relative to nominal ([2]; QC 100 nM 1x thawed) | Freeze-thaw stability, concentration relative to nominal ([2]; QC 100 nM 10x thawed) | Stability sample during storage ([3]; QC 10, AS (reference)) | Stability sample during storage ([3]; QC 10, On ice - dark) | Stability sample during storage ([3]; QC 10, Room temperature - dark) | Stability sample during storage [3, 8] | Stability sample during storage ([3]; QC 50, AS (reference)) | Stability sample during storage ([3]; QC 50, On ice - dark) | Stability sample during storage ([3]; QC 50, Room temperature - dark) | Stability sample during storage [3, 9] | Stability sample during storage ([3]; QC 100, AS (reference)) | Stability sample during storage ([3]; QC 100, On ice - dark) | Stability sample during storage [3, 10] | Stability sample during storage [3, 11] | Urine concentrations after treatment with β-glucuronidase [4] | Plasma peak concentrations after treatment with β-glucuronidase [6] | Percentage in feces of the total expected dosage [5] | other results |
| --- | --- | --- | --- | --- | --- | --- | --- | --- | --- | --- | --- | --- | --- | --- | --- | --- | --- | --- | --- |
| O=C(/C=C/C=C/c1ccc2c(c1)OCO2)N1CCCCC1 [Piperine-135, piperine] | 100% | 101.8% | 101.7% | 100% | 77% | 78% | 77% | 100% | 90% | 85% | 90% | 100% | 89% | 85% | 85% | – | – | – | Increase of bioavailability of curcumin [1]: 154% |
| COc1cc(CCC(=O)CC(=O)CCc2ccc(O)c(OC)c2)ccc1O [Tetrahydrocurcumin] | 100% | 101.0% | 100.0% | 100% | 96% | 89% | 88% | 100% | 99% | 93% | 93% | 100% | 94% | 88% | 87% | increase | increase | – | Presence in feces [5]: No tetrahydrocurcumin was found |
| O=C(/C=C/c1ccc(O)cc1)CC(=O)/C=C/c1ccc(O)cc1 [Bisdemethoxy-curcumin, bisdemethoxycurcumin] | 100% | 100.7% | 97.1% | 100% | 90% | 95% | 88% | 100% | 90% | 92% | 89% | 100% | 84% | 84% | 82% | increase | increase | 13% | – |
| demethoxycurcumin [Demethoxy-curcumin] | 100% | 102.2% | 103.1% | 100% | 93% | 95% | 87% | 100% | 96% | 100% | 93% | 100% | 91% | 95% | 89% | increase | increase | 24.7% | – |
| COc1cc(/C=C/C(=O)CC(=O)/C=C/c2ccc(O)c(OC)c2)ccc1O [Curcumin, curcumin] | 100% | 99.8% | 96.8% | 100% | 76% | 83% | 82% | 100% | 89% | 94% | 91% | 100% | 87% | 90% | 89% | increase | increase | roughly 21.7% | ROS concentration [7]: decrease; TNF-α release [7]: decrease; Anecdotal beneficial effect, treated patients (pancreatic cancer): two out of 21; Phosphorylation levels of ERK and STAT1 (SW620 cells): significantly downregulated |
